Experimental data from USRE48636E1, “Decoy peptides inhibiting protein phosphatase 1-mediated dephosphorylation of phospholamban” (BethphaGen Inc., priority 2012, dated 2021).
Entries after “also recorded” stand apart in the source; their conditions may differ. No end group written: not given here.

Legend:
rat hearts = assay: Langendorff isolated perfused heart, ischemia/reperfusion ex vivo, left ventricular developed pressure; conditions: 20 min no-flow ischemia, 30 min reperfusion with 1 μM peptide
Procedure: (§1) FIGS. 3a-3b represent the postischemic cardiac performance ex vivo. […] The changes in left ventricular developed pressure (LVDP) are shown. n=4. *, P<0.01 compared to TAT; error bars represent SEM. […] Western blots probed with antibodies against phospho-PLB (S^16), phosphor-PLB (T^17), total PLB, Caspase 3, or GAPDH are shown.
Rats were anesthetized by inhalation of isofluran (0.5%) for 5 min. The heart was quickly removed and placed in cold oxygenated Tyrode solution (137 mM NaCl, 5.4 mM KCl, 1 mM MgCl2, 10 mM glucose, 1 mM CaCl2, 10 mM HEPES [pH 7.4], 100% O2). The aorta was cannulated and perfused by the Langendorff method with oxygenated Tyrode solution at constant pressure (65 mmHg, temperature 37±0.2° C.). A latex water-filled balloon was inserted into the left ventricular chamber and connected to a pressure transducer (AD Instruments) for continuous measurement of heart performance. Heart rate, left ventricular developed pressure (LVDP), and the first derivatives of LV pressure (LV +dP/dt max and LV −dP/dt max) were all recorded using PowerLab Chart Systems (AD Instruments). The balloon volume was adjusted in 250-300 μl to result in a measured end diastolic pressure in the range of 6-10 mmHg. After a 30 min stabilization period, the hearts were subjected to 20 min of no-flow to induce global ischemia, followed by 30 min of reperfusion. […]

[1] = test system: PP1-mediated dephosphorylation of PLB; assay: PLB phosphorylation (Western blot) in PMA-treated isolated adult cardiomyocytes; type: cell-based, rat; conditions: 1 μM peptide 45 min, then 1 μM PMA 15 min; for Blocking of PMA-induced dephosphorylation of PLB at Ser16 and Thr17 (elevating the phosphorylation levels of PLB): Western blot
Procedure: FIGS. 1c-1d represent the increase in PLB phosphorylation by the decoy peptides (FIG. 1c) and shortened decoy peptides (FIG. 1d). Isolated adult cardiomyocytes were treated with 1 μM of indicated peptides for 45 min, and then with 1 μM of PMA for 15 min. Western blots of cell lysates were then probed with antibodies against phospho-PLB (S^16), phospho-PLB (T^17), total PLB, or GAPDH. The decoy peptides contain the following sequences: ψPLB-SE, RAETIEMPQ (SEQ ID NO:1); ψPLB-SD, RADTIEMPQ (SEQ ID NO:3); ψPLB-TE, RASEIEMPQ (SEQ ID NO:2). The shortened decoy peptides contain the following sequences: ψPLB-8-mer, AETIEMPQ (SEQ ID NO:4); ψPLB-7-mer, RAETIEM (SEQ ID NO:5); ψPLB-6-mer, RAETIE (SEQ ID NO:6); ψPLB-5-mer: RAETI (SEQ ID NO:7). PMA, phorbol 12-myristate 13-acetate.
The decoy peptides were derived from the PLB protein sequence (SEQ ID NO:10) surrounding the phosphorylation sites Ser^16 and Thr^17: RAS^16T^17IEMPQ. The peptides were conjugated via a cystein-cystein bond at their N termini to the cell penetrating peptide TAT (YGRKKRRQRRR (SEQ ID NO:11)) to facilitate uptake into cells. The peptides used in this invention were as follows: ψPLB-wt, RASTIEMPQ (SEQ ID NO:8); ψPLB-SE, RAETIEMPQ (SEQ ID NO:1); ψPLB-TE, RASEIEMPQ (SEQ ID NO:2); ψPLB-SD, RADTIEMPQ (SEQ ID NO:3). In addition, shortened ψPLB-SE peptides were also tested: 8-mer, AETIEMPQ (SEQ ID NO:4); 7-mer, RAETIEM (SEQ ID NO:5); 6-mer, RAETIE (SEQ ID NO:6); 5-mer, RAETI (SEQ ID NO:7). All of the peptides were synthesized and modified by AnyGen (Gwangju, Korea) and dissolved in distilled water to a stock concentration of 1 mM. Peptides were >95% pure. The decoy peptides were treated for 1 h at a final concentration of 1 μM.
(§2) Ventricular myocytes were isolated from SD rat hearts as previously described with minor modifications. Male rats of 8-12 weeks of age (250-320 g) were used. In brief, rats were anesthetized by the inhalation of isofluran (0.5%) for 5 min. The heart was quickly removed from the chest and the aorta was retrogradely perfused at 37° C. for 3 min with calcium-free Tyrode buffer (137 mM NaCl, 5.4 mM KCl, 1 mM MgCl2, 10 mM glucose, 10 mM HEPES [pH 7.4], 10 mM 2, 3-butanedione monoxime, and 5 mM taurine) gassed with 100% O2. The enzymatic digestion was then initiated by adding collagenase type B (0.35 U/ml; Roche) and hyaluronidase (0.1 mg/ml; Worthington) to the perfusion solution. When the heart became swollen after 10 min of digestion, the left ventricle was quickly removed, cut into several chunks, and further digested in a shaker (60-70 rpm) for 10 min at 37° C. in the same enzyme solution. The supernatant containing the dispersed myocytes was then filtered through a cell strainer (100 μm in pore size, BD Falcon) and gently centrifuged at 500 rpm for 1 min. Extracellular Ca^2+ was incrementally added back to a concentration of 1.25 mM over a span of 30 min to avoid the Ca^2+ paradox. This procedure usually yielded ≥80% viable rod-shaped ventricular myocytes with clear sarcomere striations. Myocytes with obvious sarcolemmal blebs or spontaneous contractions were discarded.
(§3) Heart lysates (50 μg) in SDS sample buffer were run on a SDS-PAGE gel and then transferred to a PVDF membrane (Bio-Rad). The membrane was blocked with a 5% skim milk solution and then incubated overnight with antibodies directed against PLB (Affinity Bioreagents), phospho-PLB (Ser^16, Cell Signaling), phospho-PLB (Thr^17, Badrilla), SERCA2a (Santa Cruz), Caspase 3 (Cell Signaling), or GAPDH (Santa Cruz). The membranes were then incubated with a secondary antibody conjugated to horseradish peroxidase (Jackson Immuno Research) and developed using the Western Lighting chemiluminescence reagent (Perkin Elmer).

adult cardiomyocytes [2] = assay: Cell contractility of isolated adult cardiomyocytes (video-based edge detection); parameters: species or system rat; conditions: for Effect on PMA-induced reduction in contractility (peak shortening, rates of contraction and relaxation): 1 μM peptide 45 min, then 1 μM PMA 15 min
Procedure: (§4) FIGS. 2a-2d represent the increase in cardiac contractility by the decoy peptides. Isolated adult cardiomyocytes were treated with 1 μM of indicated peptides for 45 min, and then with 1 μM of PMA for 15 min. Contractile parameters were then determined. FIGS. 2a and 2b show contractile parameters. Peak cell shortening, percentage of shortened cell length; −dL/dt, maximal rate of cell shortening; +dL/dt, maximal rate of cell relengthening. FIGS. 2c and 2d show average parameters of the transient Ca^2+ properties determined with Fura2/AM. Baseline [Ca^2+]i, baseline intracellular Ca^2+ levels; Δ[Ca^2+]i (340/380), increase in intracellular Ca^2+ levels in response to electric Stimuli; τ(ms), Ca^2+ transient decay rate. Approximately 500 cells were chosen for the contractility and Ca^2+ transient measurements were taken from eight individual hearts. #, P<0.05; *, P<0.01 compared to control; error bars represent SD.
as §2
(§5) The mechanical properties of ventricular myocytes were assessed using a video-based edge detection system (IonOptix), as previously described. In brief, laminin-coated coverslips with attached cells were placed in a chamber mounted on the stage of an inverted microscope (Nikon Eclipse TE-100F) and perfused (about 1 ml/min at 37° C.) with Tyrode buffer (137 mM NaCl, 5.4 mM KCl, 1 mM CaCl2, 1 mM MgCl2, 10 mM glucose, and 10 mM HEPES [pH 7.4]). The cells were field-stimulated at a frequency of 3 Hz (30 V) using a STIM-AT stimulator/thermostat placed on a HLD-CS culture chamber/stim holder (Cell Micro Controls). […] Changes in cell length during shortening and relengthening were captured and analyzed using soft edge software (IonOptix). The cardiomyocytes were loaded with 0.5 μM Fura2-AM (Molecular Probes), a Ca^2+-sensitive indicator, for 15 min at 37° C. Fluorescence emissions were recorded simultaneously with the contractility measurements using Myocyte calcium and contractility recording system (IonOptix). Cardiomyocytes were exposed to light emitted by a 75 W halogen lamp through either a 340 or 380 nm filter while being field-stimulated as described above. Fluorescence emissions were detected between 480 and 520 nm by a photomultiplier tube after initial illumination at 340 nm for 0.5 ms and then at 380 nm for the duration of the recording protocol. The 340 nm excitation scan was then repeated at the end of the protocol, and qualitative changes in the intracellular Ca^2+ concentration were inferred from the ratio of the Fura fluorescence intensity at both wavelengths.

adult cardiomyocytes [3] = assay: Intracellular Ca2+ transient measurement (Fura2-AM) in isolated adult cardiomyocytes; type: cell-based, rat; conditions: for Effect on PMA-induced defects in intracellular Ca2+ handling (Ca2+ transient amplitude, time constant of decay): 1 μM peptide 45 min, then 1 μM PMA 15 min, Fura2/AM
Procedure: as §4, §2, §5

Caspase 3 = assay: Western blot of heart lysates after ischemia/reperfusion: Caspase 3; parameters: species or system rat; conditions: heart lysates at the end of reperfusion with 1 μM peptide
Procedure: as §1, §3
(§6) Rats were anesthetized by inhalation of isofluran (0.5%) for 5 min. […] Heart rate, left ventricular developed pressure (LVDP), and the first derivatives of LV pressure (LV +dP/dt max and LV −dP/dt max) were all recorded using PowerLab Chart Systems (AD Instruments). The balloon volume was adjusted in 250-300 μl to result in a measured end diastolic pressure in the range of 6-10 mmHg. […]

PLB = assay: Western blot of heart lysates after ischemia/reperfusion: phospho-PLB; parameters: species or system rat; conditions: heart lysates at the end of reperfusion with 1 μM peptide
Procedure: as §1, §3, §6

[4] = 1 μM PMA 15 min, no decoy peptide

| Compound | Blocking of PMA-induced dephosphorylation of PLB at Ser16 and Thr17 (elevating the phosphorylation levels of PLB) [1] | Effect on PMA-induced reduction in contractility (peak shortening, rates of contraction and relaxation) (adult cardiomyocytes [2]) | Effect on PMA-induced defects in intracellular Ca2+ handling (Ca2+ transient amplitude, time constant of decay) (adult cardiomyocytes [3]) | further results |
| --- | --- | --- | --- | --- |
| YGRKKRRQRRR (Human immunodeficiency virus) [TAT, reference compound] |  |  |  | Effect on left ventricular developed pressure after ischemia/reperfusion (rat hearts): no effects |
| RAETIEM [ψPLB-7-mer] | only ψPLB-5-mer was ineffective |  |  |  |
| RASTIEMPQ (not fully specified (N-terminus); also: TAT coupled via disulfide) [ψPLB-wt] |  | no or only marginal effects | negligible or marginal |  |
| RASEIEMPQ (not fully specified (N-terminus); also: TAT coupled) [ψPLB-TE] | blocked dephosphorylation but was less effective than ψPLB-SE; also recorded: not as effective as ψPLB-SE | no or only marginal effects | negligible or marginal |  |
| RAETIE [ψPLB-6-mer] | only ψPLB-5-mer was ineffective | as effective as ψPLB-SE | as effective as ψPLB-SE |  |
| RADTIEMPQ (not fully specified (N-terminus); also: TAT coupled) [ψPLB-SD] | as effective as ψPLB-SE | as effective as ψPLB-SE | as effective as ψPLB-SE |  |
| RAETI [ψPLB-5-mer] | ineffective |  |  |  |
| RAETIEMPQ (not fully specified (N-terminus); also: TAT coupled) [ψPLB-SE] | significantly blocked; also recorded: prevented dephosphorylation | completely prevented | completely reversed | I/R-induced activation of cell death-related Caspase 3 (Caspase 3): completely reversed; Phosphorylation of PLB at Ser16 after ischemia/reperfusion (PLB): significantly recovered; Left ventricular developed pressure after ischemia/reperfusion (rat hearts; I/R alone 37-44 mmHg, pre-ischemia 80-100 mmHg): 73-78 mmHg; Phosphorylation levels of PLB after treatment compared with basal levels [1]: slightly but significantly higher than the basal levels |
| CCCCCCCCCCCCCC(=O)O[C@@H]1[C@@H](C)[C@@]2(O)[C@@H](C=C(CO)C[C@]3(O)C(=O)C(C)=C[C@@H]23)[C@@H]2C(C)(C)[C@]12OC(C)=O [PMA, phorbol 12-myristate 13-acetate, reference compound] |  |  |  | Contractility (peak shortening, rates of contraction and relaxation) (adult cardiomyocytes [2]; [4]): significantly reduced; Ca2+ transient amplitude (adult cardiomyocytes [3]; [4]): significant reduction; Time constant of the Ca2+ transient decay (adult cardiomyocytes [3]; [4]): significant increase |
| AETIEMPQ (not fully specified (N-terminus); also: TAT coupled) [ψPLB-8-mer] | only ψPLB-5-mer was ineffective |  |  |  |
